Assay results: patent US4107298A, “Antigenically active polypeptide and a process for its preparation” (AB Bonnierforetagen, priority 1976, dated 1978)
No end group written: not given here.

Tested on: antibodies specific to TPA (prepared by using natural cancer antigen, CAPA or TPA)
Assay: hemagglutination inhibition test
Type: binding
Settings: for immunological activity after coupling to inert albumin: coupled to inert bovine albumin, molar ratio about 1:1, by water soluble carbodiimide (EDC)
From the text: The polypeptide prepared according to the foregoing was investigated with regard to its ability to inhibit the hemagglutination reaction between tanned red sheep blood cells labelled with natural cancer antigen and antibodies prepared by using natural cancer antigen (CAPA or TPA). With regard to details concerning this technique reference is had to the above-identified Swedish patent application 73-08917-9 and U.S. Pat. No. 3,960,827. […] Said Unit for specific activity is defined as 1/6 of the quantity active polypeptide required to label 10^9 sheep blood cells so as to be fully agglutinated by a minimum number or amount of antibodies (maximum dilution of antibodies).
In Example 1 as described above the antigenic activity of the synthesized polypeptide was determined in the following manner.
For quantitative determination of the amount of polypeptide 7 mgs of the peptide are dissolved in 1.4 mls of buffer grade serum, i.e. a physiological saline solution containing 2% of inert human serum and buffered to a pH of about 7.5 with a phosphate buffer. Under serial dilution a series of samples of said solution having a decreasing polypeptide concentration is prepared and to each of said samples there is added a pre-determined amount of anti-serum containing antibodies specific to TPA. To each of the resulting samples there is then added, after incubation, a predetermined amount of the polypeptide carried on a particulate carrier, hemagglutination taking place to an extent corresponding to the amount of available antibodies. In parallel there is prepared a corresponding series of control samples containing known decreasing amounts of TPA. The diameters of the hemagglutination depositions of the control samples are then measured in their respective cavities on a serial dilution test plate, and the values of the diameters obtained are plotted against the TPA concentrations, an S-shaped curve being obtained, the intermediate part of which including an inflexion point as a steep inclination. The corresponding curve of the diameter of the depositions from the hemagglutination as a function of the TPA-concentrations is shown in the diagram of the appended drawing, as curve B.
In the same diagram the corresponding curve for the synthesized polypeptide is shown as A, and with knowledge of the specific activity of the TPA the specific activity of the synthesized polypeptide is found to be 0.024 Units per milligram of peptide.

## ALLNDELAQYLDLVRALEAANGQLEV [Example 1]
Basic environment only, pH 13, same period of time, no cyclohexanedione
  activity lowered: about 20%
Centrally positioned arginine A0 blocked with cyclohexanedione at pH 13
  loss of activity: 99.5%
Inhibition of hemagglutination between tanned red sheep blood cells labelled with natural cancer antigen and anti-TPA antibodies, compared with the TPA control curve
  specific activity: 0.024 U/mg
Treated with iodine at pH 9.5, 100 times excess
  activity disappears: 40-50%
Treated with iodine at pH 9.5, 1000 times excess
  activity lost: about 75%
Treated with iodine at pH 9.5, excess of about 10000 times in relation to tyrosine content
  activity lost: about 85%
Treated with iodine at pH 9.5, excess of only about 10 times
  activity of the polypeptide: not effected

## ALLNDILAQYLDLVRALEAANGRLEV [Example 25]
  immunological activity compared with the polypeptide of Example 1: about equally immunologically active

## AQYLDLVRALEAANGELEV [Example 3, Ala Gln Tyr Leu Asp Leu Val Arg Ala Leu Glu Ala Ala Asn Gly Glu Leu Glu Val]
  immunological activity compared with the polypeptide of Example 1: about equally immunologically active
  immunological activity after coupling to inert albumin: maintained

## DDRLAKYLDKVRALEAADG [Example 6, Asp Asp Arg Leu Ala Lys Tyr Leu Asp Lys Val Arg Ala Leu Glu Ala Ala Asp Gly]
  immunological activity compared with the polypeptide of Example 1: about equally immunologically active

## LNDELAQYLDLVRALEAANGRLEV [Example 4]
  immunological activity compared with the polypeptide of Example 1: about equally immunologically active
  immunological activity after coupling to inert albumin: maintained

## NDILAQYLDLVRALEAANG [Example 5, Asn Asp Ile Leu Ala Gln Tyr Leu Asp Leu Val Arg Ala Leu Glu Ala Ala Asn Gly]
  immunological activity compared with the polypeptide of Example 1: about equally immunologically active

## TDLDDRLAKYLDKVRALEAADGELEV [Example 2]
  immunological activity compared with the polypeptide of Example 1: about equally immunologically active
